The values below come from patent US10150737B2, “Compounds for controlling arthropods” (priority 2013, dated 2018).

One data set deals with Myzus persicae. Kind of data set: Myzus persicae - spray test. The format is in vivo. The following applies: Chinese cabbage leaf discs, after 6 days. Here is the method: Solvent: 78 parts by weight of acetone and 1.5 parts by weight of dimethylformamide
Emulsifier: alkylaryl polyglycol ether
To produce an appropriate active ingredient formulation, 1 part by weight of active ingredient is dissolved using the specified parts by weight of solvent and made up with water containing an emulsifier concentration of 1000 ppm until the desired concentration is attained. To produce further test concentrations, the preparation is diluted with emulsifier-containing water.
Discs of Chinese cabbage leaves (Brassica pekinensis) infested by all stages of the green peach aphid (Myzus persicae) are sprayed with an active ingredient formulation of the desired concentration.
After 6 days, efficacy in % is determined. 100% means that all the aphids have been killed; 0% means that none of the aphids have been killed.

For the next data set, the system named is Tetranychus urticae. Kind of data set: Tetranychus urticae - spray test, OP-resistant. In kind it is in vivo. The following applies: bean leaf discs, after 6 days. An outline of the steps: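 Compound dissolved in acetone/DMF, diluted with water containing 1000 ppm alkylaryl polyglycol ether emulsifier to test concentrations. Bean leaf discs infested with all stages of spider mites were sprayed; % kill determined after 6 days (100% = all mites dead, 0% = none).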

The nature of data set [1]: logP determination by HPLC on a reversed-phase column (C18). In kind it is physicochemical. Conditions: for logP^a): HPLC-MS method a); for log P: HPLC-MS.
In a further data set the test system is Phaedon cochleariae. Kind of data set: Phaedon cochleariae - spray test. The format is in vivo. The following applies: larvae on Chinese cabbage leaf discs, after 7 days. An outline of the steps:
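Chinese cabbage leaf discs sprayed with compound formulated in acetone/DMF and water containing 1000 ppm emulsifier; once dry, infested with mustard beetle larvae. Efficacy (% larvae killed) scored after 7 days.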

Data set [2] has as its system Boophilus microplus Parkhurst strain, SP-resistant. Kind of data set: Boophilus microplus - dip test. In kind it is in vivo. Conditions: application rate 100 ppm; dip of engorged adult female ticks; after 7 days. As to the method:
Test animals: cattle ticks (Boophilus microplus) Parkhurst strain, SP-resistant
Solvent: dimethyl sulphoxide
10 mg of active ingredient are dissolved in 0.5 ml of dimethyl sulphoxide. For the purpose of producing a suitable formulation, the active ingredient solution is diluted with water to the concentration desired in each case.
This active ingredient formulation is pipetted into tubes. 8-10 adult engorged female cattle ticks (Boophilus microplus) are transferred into a further tube with holes. The tube is immersed into the active ingredient formulation, and all the ticks are completely wetted. After the liquid has run out, the ticks are transferred on filter discs into plastic dishes and stored in a climate-controlled room.
Efficacy is assessed after 7 days by laying of fertile eggs. Eggs which are not visibly fertile are stored in a climate-controlled cabinet until the larvae hatch after about 42 days. An efficacy of 100% means that none of the ticks has laid any fertile eggs; 0% means that all the eggs are fertile.

Data set [3] relates to Ctenocephalides felis. Kind of data set: Ctenocephalides felis - oral test. The format is in vivo. The following applies: application rate 100 ppm in citrated cattle blood; after 2 days. An outline of the steps: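 Compound in DMSO diluted into citrated cattle blood, fed through a parafilm membrane to about 20 unfed adult cat fleas. Kill in % scored after 2 days (100% = all dead).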

Another data set relates to Lucilia cuprina. Kind of data set: Lucilia cuprina test. The format is in vivo. The following applies: application rate 100 ppm; L1 larvae; after 2 days. An outline of the steps: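 About 20 L1 larvae placed on minced horsemeat treated with compound, formulated in DMSO and diluted with water to test concentration. Kill in % scored after 2 days (100% = all larvae dead, 0% = none).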

A further data set deals with Boophilus microplus. Kind of data set: Boophilus microplus - injection test. In kind it is in vivo. The following applies: application rate 20 μg/animal, injection into engorged adult female ticks, after 7 days. An outline of the steps: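 Active ingredient in DMSO, 1 μl injected into the abdomen of 5 engorged adult female ticks, then held in a climate-controlled room. Efficacy scored after 7 days from laying of fertile eggs, with non-fertile-looking eggs kept about 42 days for larval hatch; 100% means no fertile eggs.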

The subject of the next data set is Spodoptera frugiperda. Kind of data set: Spodoptera frugiperda - spray test. In kind it is in vivo. Conditions: caterpillars on maize leaf discs, after 7 days. The essentials: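 Maize leaf discs sprayed with compound formulated in acetone/DMF and diluted in water containing 1000 ppm alkylaryl polyglycol ether emulsifier, then infested with armyworm caterpillars after drying. Efficacy scored after 7 days as % caterpillars killed (100% all, 0% none).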

The next data set concerns Musca domestica. Kind of data set: Musca domestica test. The format is in vivo. The following applies: application rate 100 ppm; adult houseflies; after 2 days. The essentials: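 Percent kill of adult houseflies is recorded 2 days after exposure, where 100% denotes all flies dead and 0% none. Flies (10 per vessel) feed from a sponge carrying sugar solution and the aqueous-diluted DMSO formulation.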

Data set [4] relates to Ctenocephalides felis. Kind of data set: Ctenocephalides felis - in vitro contact tests with adult cat fleas. In kind it is in vivo. The following applies: application rate 5 μg/cm2 (=500 g/ha); after 48 h; fleas dead or moribund. An outline of the steps: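 Tubes coated with compound in acetone (250 μl of 900 ppm solution gives 5 μg/cm^2 on 44.7 cm^2), solvent evaporated, then 5–10 adult fleas added and kept horizontal at room temperature and ambient humidity. After 48 h, dead or moribund (motionless/uncoordinated) fleas scored as % efficacy.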

[5] abbreviates: reversed-phase column (C18), Table I-T3.

For orientation: log P means a log measure of how a compound divides between an organic and an aqueous phase.

For the compound `CCc1cc(C(F)(C(F)(F)F)C(F)(F)F)ccc1-n1cc(-c2ccc(Cl)c(C(=O)NC3CC3)c2)cn1` [I-T3-39], the efficacy in the data set with Myzus persicae (application rate 100 g/ha) came out at 90%; with Tetranychus urticae (application rate 100 g/ha), 100%; in the data set with Phaedon cochleariae (application rate 100 g/ha), 100%; in the data set with Spodoptera frugiperda (application rate 100 g/ha) it was 100%. Also, the “logP^a)” value in data set [1] and in [1] (setting [5]) was 4.6 each time. Further, the “efficacy (laying of fertile eggs)” value (in [2]; with Boophilus microplus) was 100% in each case. The “efficacy (kill)” value with Ctenocephalides felis [3] and with Lucilia cuprina was 100% each time.

Take `O=C(NC1CC1)c1cc(-c2cnn(-c3c(F)cc(C(F)(F)F)cc3F)c2)ccc1Cl` [I-T3-48, 2-chloro-N-cyclopropyl-5-[1-[2,6-difluoro-4-(trifluoromethyl)phenyl]pyrazol-4-yl]benzamide]: the “efficacy (laying of fertile eggs)” value in [2] is reported as 100%. The pest or weed control at 0.02 mg in the data set with Boophilus microplus (Rhipicephalus microplus, 168 h, read-out: efficacy (laying of fertile eggs)) was found to be 100%. Further, the “efficacy (kill)” value in the data set with Musca domestica is reported as 100%.

For the compound `CN(C(=O)c1cc(-c2cnn(-c3c(Cl)cc(C(F)(F)F)cc3Cl)c2)cnc1Cl)C1CC1` [I-T3-99], the efficacy with Myzus persicae (application rate 100 g/ha), in the data set on Tetranychus urticae (application rate 100 g/ha), with Phaedon cochleariae (application rate 100 g/ha), in the data set with Ctenocephalides felis [4] and with Spodoptera frugiperda (application rate 100 g/ha) was 100% in each case. Besides, the “logP^a)” value in [1] was 3.5. Besides, in data set [1] (setting [5]), the “log P” value is 3.5. Besides, the “efficacy (laying of fertile eggs)” value in data set [2] is 90%; with Boophilus microplus, 100%. The figures for the “efficacy (kill)” value in the data set on Ctenocephalides felis [3], with Lucilia cuprina and with Musca domestica were 100%, 100% and 90%, respectively.

Turning to `CN(C(=O)c1cc(-c2cnn(-c3c(Cl)cc(C(F)(C(F)(F)F)C(F)(F)F)cc3C(F)(F)F)c2)cnc1Cl)C1CC1` [I-T3-113], the efficacy in the data set on Myzus persicae (application rate 100 g/ha), in the data set on Tetranychus urticae (application rate 500 g/ha), in the data set with Phaedon cochleariae (application rate 500 g/ha) and with Spodoptera frugiperda (application rate 500 g/ha) was 100% throughout. Besides, in data set [1] (reversed-phase column (C18)), the “logP^a)” value is listed as 4.0. Moreover, the “log P” value in data set [1] (setting [5]) is given as 4.0. For the same compound, the “efficacy (laying of fertile eggs)” value (in [2]; in the data set on Boophilus microplus) was 100% each time. In addition, the “efficacy (kill)” value in the data set with Ctenocephalides felis [3], in the data set with Lucilia cuprina and in the data set on Musca domestica was 100% in each case.

Consider `Cc1cc(C(F)(C(F)(F)F)C(F)(F)F)cc(C)c1-n1cc(-c2cnc(C)c(C(=O)N(C)C3(C#N)CC3)c2)cn1` [I-T3-115], for which the efficacy in the data set on Myzus persicae (application rate 100 g/ha), in the data set with Tetranychus urticae (application rate 500 g/ha), in the data set with Phaedon cochleariae (application rate 500 g/ha), with Ctenocephalides felis [4] and in the data set with Spodoptera frugiperda (application rate 500 g/ha) was 100% in each case. Moreover, the “logP^a)” value in data set [1] (reversed-phase column (C18)) worked out at 3.8. Besides, the “log P” value in data set [1] (setting [5]) is 3.8. Besides, the “efficacy (laying of fertile eggs)” value (in data set [2]; with Boophilus microplus) was 100% in each case. Moreover, the “efficacy (kill)” value with Ctenocephalides felis [3], in the data set with Lucilia cuprina and with Musca domestica was 100% each time.

Turning to `Cc1cc(C(F)(C(F)(F)F)C(F)(F)F)cc(C(F)(F)F)c1-n1cc(-c2cnc(C)c(C(=O)N(C)C3CC3)c2)cn1` [I-T3-118], the efficacy is listed as 100% with Myzus persicae (application rate 100 g/ha); 90% in the data set on Tetranychus urticae (application rate 500 g/ha); 100% in the data set with Phaedon cochleariae (application rate 500 g/ha); 100% with Ctenocephalides felis [4]; 100% in the data set on Spodoptera frugiperda (application rate 500 g/ha). For the same compound, the “logP^a)” value in [1] (reversed-phase column (C18)) is reported as 3.8. In addition, in data set [1] (setting [5]), the “log P” value was 3.8. The “efficacy (laying of fertile eggs)” value (in [2]; in the data set with Boophilus microplus) was 100% in each case. Further, the “efficacy (kill)” value in the data set with Ctenocephalides felis [3], in the data set with Lucilia cuprina and in the data set on Musca domestica was 100% throughout.

Consider `Cc1cc(C(F)(C(F)(F)F)C(F)(F)F)cc(C)c1-n1cc(-c2cnc(C)c(C(=O)N(C)C3CC3)c2)cn1` [I-T3-120], for which the efficacy in the data set on Myzus persicae (application rate 100 g/ha) was 100%; in the data set on Myzus persicae (application rate 500 g/ha), 90%; with Tetranychus urticae (application rate 500 g/ha) it was 100%; in the data set on Phaedon cochleariae (application rate 500 g/ha) it was 100%; in the data set with Ctenocephalides felis [4] it was 100%; in the data set on Spodoptera frugiperda (application rate 500 g/ha), 100%. For the same compound, the “logP^a)” value in [1] (reversed-phase column (C18)) worked out at 3.6. Also, the “log P” value in data set [1] (setting [5]) is reported as 3.6. Moreover, the “efficacy (laying of fertile eggs)” value (in data set [2]; with Boophilus microplus) was 100% each time. In addition, the “efficacy (kill)” value with Ctenocephalides felis [3], with Lucilia cuprina and with Musca domestica was 100% throughout.

Turning to `Cc1ncc(-c2cnn(-c3c(Cl)cc(C(F)(C(F)(F)F)C(F)(F)F)cc3C(F)(F)F)c2)cc1C(=O)N(C)C1CC1` [I-T3-130], the efficacy in the data set on Myzus persicae (application rate 100 g/ha), in the data set on Tetranychus urticae (application rate 100 g/ha), with Phaedon cochleariae (application rate 100 g/ha), with Ctenocephalides felis [4] and in the data set with Spodoptera frugiperda (application rate 100 g/ha) was 100% in each case. In addition, in [1] (reversed-phase column (C18)), the “logP^a)” value came out at 3.8. For the same compound, the “log P” value in [1] (setting [5]) is reported as 3.8. Also, the “efficacy (laying of fertile eggs)” value (in [2]; in the data set with Boophilus microplus) was 100% each time. Further, the “efficacy (kill)” value with Ctenocephalides felis [3], in the data set with Lucilia cuprina and in the data set with Musca domestica was 100% throughout.

With `Cc1ncc(-c2cnn(-c3c(Cl)cc(C(F)(C(F)(F)F)C(F)(F)F)cc3Cl)c2)cc1C(=O)N(C)C1CC1` [I-T3-133], the efficacy in the data set with Tetranychus urticae (application rate 100 g/ha), in the data set with Phaedon cochleariae (application rate 100 g/ha), in the data set on Ctenocephalides felis [4] and in the data set with Spodoptera frugiperda (application rate 100 g/ha) was 100% each time. Further, in data set [1] (reversed-phase column (C18)), the “logP^a)” value came to 3.7. Also, in [1] (setting [5]), the “log P” value is given as 3.7. For the same compound, the “efficacy (laying of fertile eggs)” value (in data set [2]; with Boophilus microplus) was 100% in each case. Moreover, the “efficacy (kill)” value in the data set with Ctenocephalides felis [3], in the data set on Lucilia cuprina and with Musca domestica was 100% in each case.
